Measured values from patent publication US20240002405A1, “ANTIMICROBIAL COMPOUNDS, SYNTHESIS METHODS, AND USES THEREOF” (Ankh Life Sciences Limited, priority 2022, published 2024).
Converted amounts (≈) assume the structure as drawn. “And” between values parts separate entries of the source, which are not always exact repeats. Equal values may be shown once. Read-outs that look alike come from different tables or passages of the source.

Legend:
S. aureus (ATCC 29213) [1] = experiment: Minimum bactericidal concentration (MBC) assay, S. aureus; format: cell-based; details: Staphylococcus aureus, S. aureus
Method: (§1) (f) Determination of MBC: MBC was determined by sampling all the macroscopically clear wells. Before sampling, the wells were gently mixed by flushing them with a pipette, and a 5 μL was removed and placed on an agar plate suitable for the growth of the microbe being tested. The agar plate was divided into three parts to test three trials of a single concentration. The sample was allowed to be absorbed into the agar for ˜30 minutes. The plates were then incubated for 24 hours at 37° C. After incubation, the plates were examined to determine the compound concentration at which 99.9% killing was achieved.

MRSA (ATCC 43300) = experiment: Minimum bactericidal concentration (MBC) assay, MRSA; format: cell-based; details: Staphylococcus aureus, MRSA
Method: as §1

E. faecalis (ATCC 29212) [2] = experiment: Minimum bactericidal concentration (MBC) assay, E. faecalis; format: cell-based, Enterococcus faecalis; details: for MBC: Enterococcus faecalis, ATCC29212
Method: as §1

VREF (ATCC 51299) = experiment: Minimum bactericidal concentration (MBC) assay, VREF; format: cell-based, Enterococcus faecalis; details: VREF; for MBC: Enterococcus faecalis, ATCC51299, read-out: MBC (bactericidal activity)
Method: as §1

Solubility in DMSO = format: physicochemical
[3] = tested on: gram positive and negative bacteria; experiment: Antibacterial testing against gram positive and negative bacteria; format: cell-based
Method: In addition to the harmaline dimers compounds, other bicyclic indole compounds (203, 233, 476/6 and 504/6,) were also tested against gram positive and negative bacteria. Particularly, the indole ethyl urea molecules 203, 233 and the tryptamide dimer molecules 476/6, 504/6, as shown below, were tested.

[4] = tested on: engineered Salmonella typhimurium strain (umuC, β-galactosidase); details: without S9 activation
Description: The EBPI UMU-ChromoTest™ assay is used for the detection and quantification of genotoxicity of compounds and is based on the International Organization for Standardization protocol ISO 13829. The UMU-ChromoTest™ assay utilizes a native bacterial mechanism for the detection of compound genotoxicity. The bacteria used for the assay is an engineered Salmonella typhimurium strain developed to include a gene coding for the β-galactosidase (β-gal) enzyme tethered to the umuC, a damage response gene. DNA damage activates the SOS system to transcribe β-gal proportional to the level of SOS induction. The UMU-ChromoTest™ bacterial strain has modifications to increase sensitivity to genotoxins with (a) increased sensitivity for even limited damage, (b) modified outer membrane of the cell to increase permeability to exogenous materials, and (c) production of a color change on addition to chromogenic substrate (ONPG), which is a quantitative measure of genotoxic damage to bacterial DNA.
Rehydration of Dried Bacteria and Culture Growth: The bacteria were rehydrated and incubated at 37° C. for 16-18 hours. OD600 of the overnight culture should be 0.5 or at least above 0.1 at 600 nm.
Sample Preparation and Plate Setup: The dimer compounds were dissolved in DMSO. All dilution and controls were made in the solvent of 10% DMSO in sterile 0.85% saline. The pH of the compounds was adjusted to 7.0±0.2 before incubation with bacteria to facilitate bacterial growth and prevent degradation of ONPG later in the assay. The solutions of hydrochloric acid and sodium hydroxide were used to adjust pH with minimal addition volumes to prevent excessive sample dilution. Six samples were run at 4 dilutions at a time.
Preliminary Dilution of Bacteria: The overnight bacterial culture was diluted to 50% by performing a reinoculation with 5 mL of overnight growth and 5 mL of fresh Growth media. The reinoculated bacteria was inoculated for 1.5 hours at 37° C. The OD600 should be approximately 80% of the reading from overnight growth or slightly higher.
Preparation of Plate A: Distilled water (180 μL) was added to all wells, except for rows A to F, columns 1 to 3 and row H, columns 1 to 6. Rows A to F are used for 6 compounds per plate. The test compounds (360 μL) were added to the first three wells (three replicates) of the same microplate, such that wells 1-3 were a triplicate set of the highest concertation of test compound (360 μL). Wells 4-12 each contained 180 μL of distilled water. For dilution, half of the contents (180 μL) from wells 1-3 was transferred to wells 4-6 which makes a second triplicate set. For a third dilution, half of the contents from wells 4-6 were transferred to 7-9, and for the fourth triplicate set, half of the contents from wells 7-9 was transferred to 10-12. […]

[5] = tested on: MRSA: S. aureus resistant to methicillin and oxacillin (ATCC 43300); experiment: Broth microdilution MIC assay, MRSA; details: Staphylococcus aureus, ATCC43300|MRSA, read-out: MIC (bacterial growth inhibition)
Method: (§2) The concentration of compound required to visibly stop the growth of bacteria is known as minimum inhibitory concentration (MIC). Different concentrations of the compounds are tested for the exact same number of bacteria, and the growth is monitored with time.
(§3) Bacterial strains were purchased from the American Type Culture Collection (ATCC) for the studies.
(§4) The MIC assay procedure follows the guidelines set by the Clinical Laboratory Sciences Institute (CLSI).
(§5) To do this, bacteria were transferred from pure agar culture, aseptically transferred in 5 mL of Cation-Adjusted Mueller-Hinton Broth (CAMHB). The broth was incubated overnight at 35° C. to stationary phase to achieve a turbidity suspension. A spectrophotometer (SpectraMax ID5) was used to measure the turbidity (optical density—OD at 625 nm). The inoculum was prepared by adjusting the turbidity of overnight culture to 0.5 McFarland, which is equal to the defined number of bacteria 1×10^8 CFU/ml.
(§6) (b) Compound Dilution: All compounds used in the study were dissolved in sterile ultra-pure DMSO (VWR International, PA, USA) and maintained at −80° C. Stock solution of the compound was freshly prepared the day of use or is prepared from a frozen stock solution stored at −80° C. […] The compound solution was prepared at a desired concentration in DMSO, and 1/10 dilution was performed in a sterile CAMHB medium. This 10-fold dilution of stock solution was used for a 2-fold serial dilution in a 96-well plate to observe an inhibitory effect of the compound on bacterial growth. 100 μL of diluted drug solution was transferred to a first column of the 96-well plate. 50 μL of sterile CAMHB was transferred to each well from well 2 to well 12. Next, 50 μL was removed from well 1 and added to well 2. The contents from well 2 were mixed by pipetting up and down. Next, 50 µL were removed from well 2 and added to well 3. This process was continued till well 11 is reached. 50 μL was discarded from the well 11. Each compound concentration was tested in triplicate.
(§7) (c) Inoculation of 96-well plate: The same number of bacteria (1×10^5 CFU/mL) were prepared after 150-fold dilution of 0.5 McFarland inoculum and used to add in the wells of different drug concentrations. 50 μL of working inoculum was carefully added to each well, except the sterility well 12. Mixing is performed by gently flushing the inoculum in and out of the pipette tip four or five times, avoiding splashing and bubble formation.
(§8) (d) Incubation: Plates were incubated at 35° C. for 24 hours without shaking or agitation.
(§9) (e) Determination of MIC: After 18-24 hours of incubation, the plates were read for MIC. SpectraMax iD5 microplate reader was used to measure turbidity at different time points. Turbidity (OD) increases as the bacteria grow over time.

[6] = tested on: VREF: E. faecalis resistant to vancomycin (ATCC 51299); experiment: Broth microdilution MIC assay, VREF; details: Enterococcus faecalis
Method: as §2, §3, §4, §5, §6, §7, §8, §9

E. coli (ATCC 25922) = experiment: Broth microdilution MIC assay, E. coli; details: E. coli
Method: as §2, §3, §4, §5, §6, §7, §8, §9

S. aureus (ATCC 29213) [7] = experiment: Broth microdilution MIC assay, S. aureus; details: for MIC: Staphylococcus aureus, ATCC29213, read-out: MIC (bacterial growth inhibition), S. aureus; for higher efficacy than harmaline: antibacterial efficacy versus harmaline; for higher antibacterial activity than harmaline dimer without a substitution (GZ440/6): versus GZ440/6
Method: as §2, §3, §4, §5, §6, §7, §8, §9

E. faecalis (ATCC 29212) [8] = experiment: Broth microdilution MIC assay, E. faecalis; details: Enterococcus faecalis, ATCC29212, read-out: MIC (bacterial growth inhibition)
Method: as §2, §3, §4, §5, §6, §7, §8, §9

[9] = tested on: P. aeruginosa (ATCC 10145); experiment: Broth microdilution MIC assay, P. aeruginosa
Method: as §2, §3, §4, §5
(b) Compound Dilution: All compounds used in the study were dissolved in sterile ultra-pure DMSO (VWR International, PA, USA) and maintained at −80° C. […]
(e) Determination of MIC: After 18-24 hours of incubation, the plates were read for MIC. SpectraMax iD5 microplate reader was used to measure turbidity at different time points. […]

[10] = tested on: SARS-CoV-2 isolate USA-WA1/2020 in Vero-E6 cells; experiment: Virus plaque formation assay; format: cell-based
SARS-CoV-2 = experiment: RT-PCR quantitation of viral copy number; format: cell-based; details: 120 hours after infection
Vero-E6 cells = experiment: CytoTox 96 Nonradioactive Cytotoxicity Assay (LDH release)
Method: Cytotoxicity was measured using Promega™ CytoTox 96™ Nonradioactive Cytotoxicity Assay (cat #G1780, Promega, Madison, WI, USA).
Cytotoxicity was measured using the Promega™ CytoTox 96™ Nonradioactive Cytotoxicity Assay kit (cat #G1780, Promega, Madison, WI, USA) in 50 μL reactions and 96-well format (cat #161093, Thermo Fisher Scientific, Waltham, MA, USA) according to the manufacturer's protocol, except we used 20 μL of 10× Lysis Solution per 100 μL of sample and incubated at 37° C. for 30 minutes to generate the maximum LDH release control. The assay was measured using a BioTeK Synergy™ HT plate reader (model #7091000, BioTek, Winooski, VT, USA) at an optical density of 490 nm (OD490). […] LLC-MK2 cells were assessed for cytotoxicity at 5 days, whereas Vero E6 and Calu-3 cells were assessed for cytotoxicity every 24 hours from 1-5 days. Percent cytotoxicity was calculated by dividing the experimental LDH release at OD490 b.

[11] = ATCC29213, 24 h, read-out: MBC (kills bacteria)
[12] = ATCC29213, read-out: MBC (bactericidal activity)
[13] = ATCC51299, 24 h, read-out: MIC (bacterial growth inhibition)
[14] = ATCC51299, 48 h, read-out: MIC (bacterial growth inhibition)
[15] = ATCC51299, read-out: MIC (bacterial growth inhibition)

SMILES: COc1ccc2c3c([nH]c2c1)C(CC(CC1=NCCc2c1[nH]c1cc(OC)ccc21)c1c[nH]cn1)=NCC3 [1,1′-(2-(1H-imidazol-4-yl)propane-1,3-diyl)bis(7-methoxy-4,9-dihydro-3Hpyrido[3,4-b]indole)]
- MBC (S. aureus (ATCC 29213) [1]; [11]): 101 µg/mL
- MBC (S. aureus (ATCC 29213) [1]; [12]): 200 µM
- MBC (MRSA (ATCC 43300); read-out: MBC): 63.3 µg/mL
- MBC (MRSA (ATCC 43300); read-out: MRSA-MBC): 125 µM
- MBC (kills bacteria) (E. faecalis (ATCC 29212) [2]): 101.2 µg/mL (≈ 200 µM)
- MBC (E. faecalis (ATCC 29212) [2]): 200 µM (≈ 101 µg/mL)
- MBC (VREF (ATCC 51299)): > 127 µg/mL
- solubility in DMSO (time to dissolve) (Solubility in DMSO): 30 to 40 min
- bacteriostatic/bactericidal activity [3]: show bacteriostatic and bactericidal activity
- genotoxic concentration (not genotoxic up to / toxicity above) [4]: above 85 μM
- MIC ([5]; 24 h): 15.8 µg/mL (≈ 31.2 µM)
- MIC ([5]; 90 h): 31.7 µg/mL (≈ 62.5 µM)
- MIC [6, 13]: 63.3 µg/mL (≈ 125 µM)
- MIC [6, 14]: 127 µg/mL (≈ 250 µM)
- MIC [6, 15]: > 127 µg/mL
- MIC (bacterial growth inhibition) (E. coli (ATCC 25922)): no inhibition was observed
- MIC (S. aureus (ATCC 29213) [7]; time not given): 50.6 µg/mL
- higher efficacy than harmaline (S. aureus (ATCC 29213) [7]): ~15 fold
- higher antibacterial activity than harmaline dimer without a substitution (GZ440/6) (S. aureus (ATCC 29213) [7]): 1.75 fold
- MIC (E. faecalis (ATCC 29212) [8]): 50.6 µg/mL (≈ 99.9 µM)
- MIC (bacterial growth inhibition) [9]: no inhibition was observed

SMILES: COc1ccc2c3c([nH]c2c1)C(CC(CC1=NCCc2c1[nH]c1cc(OC)ccc21)c1cccnc1)=NCC3 [GK517.3, 1,1′-(2-(pyridin-3-yl)propane-1,3-diyl)bis(7-methoxy-4,9-dihydro-3H-pyrido[3,4-b]indole)]
- MBC (S. aureus (ATCC 29213) [1]; [11]): 104 µg/mL
- MBC (S. aureus (ATCC 29213) [1]; [12]): 200 µM
- MBC (MRSA (ATCC 43300); read-out: MBC): 32.4 µg/mL
- MBC (MRSA (ATCC 43300); read-out: MRSA-MBC): 62.5 µM
- MBC (kills bacteria) (E. faecalis (ATCC 29212) [2]): 103.5 µg/mL (≈ 200 µM)
- MBC (E. faecalis (ATCC 29212) [2]): 200 µM (≈ 104 µg/mL)
- MBC (VREF (ATCC 51299)): 64.7 µg/mL (≈ 125 µM)
- solubility in DMSO (time to dissolve) (Solubility in DMSO): 10 to 15 min
- bacteriostatic/bactericidal activity [3]: show bacteriostatic and bactericidal activity
- MIC ([5]; 24 h): 8 µg/mL (≈ 15.5 µM)
- MIC ([5]; 90 h): 16.2 µg/mL (≈ 31.3 µM)
- MIC [6, 13]: 32.4 µg/mL (≈ 62.5 µM)
- MIC ([6]; ATCC51299, 90 h, read-out: MIC (bacterial growth inhibition)): 64.7 µg/mL (≈ 125 µM)
- MIC (bacterial growth inhibition) (E. coli (ATCC 25922)): no inhibition was observed
- MIC (S. aureus (ATCC 29213) [7]; time not given): 51.7 µg/mL
- higher efficacy than harmaline (S. aureus (ATCC 29213) [7]): ~15 fold
- higher antibacterial activity than harmaline dimer without a substitution (GZ440/6) (S. aureus (ATCC 29213) [7]): 1.75 fold
- MIC (E. faecalis (ATCC 29212) [8]): 51.7 µg/mL (≈ 99.9 µM)
- MIC (bacterial growth inhibition) [9]: no inhibition was observed

SMILES: COc1ccc2c3c([nH]c2c1)C(CCCC1=NCCc2c1[nH]c1cc(OC)ccc21)=NCC3 [GZ440/6]
- MBC (MRSA (ATCC 43300); read-out: MBC): 110 µg/mL
- MBC (MRSA (ATCC 43300); read-out: MRSA-MBC): 250 µM
- MBC (bactericidal activity) (VREF (ATCC 51299)): No bactericidal action was observed
- inhibition of plaque formation ([10]; 2.0, 5.0 and 10.0 μM, CoV-2 in Vero-E6 cells at 120 h after infection): negligible inhibition
- inhibition of plaque formation ([10]; at 20 μM and above): inhibition of plaque formation was significant
- viral load (viral RNA levels) (SARS-CoV-2; higher concentrations (20 and 40 μM)): decreased viral load
- viral load (viral RNA levels) (SARS-CoV-2; lower concentrations): not in lower concentrations
- bacteriostatic/bactericidal activity [3]: show bacteriostatic and bactericidal activity
- MIC ([5]; 24 h): 27.5 µg/mL (≈ 62.5 µM)
- MIC ([5]; 90 h): 55 µg/mL (≈ 125 µM)
- MIC [6, 13]: 55 µg/mL (≈ 125 µM)
- MIC [6, 14]: 110 µg/mL (≈ 250 µM)
- MIC [6, 15]: > 110 µg/mL
- MIC (S. aureus (ATCC 29213) [7]): 200 µM
- MIC (S. aureus (ATCC 29213) [7]; time not given): 88 µg/mL
- MIC (E. faecalis (ATCC 29212) [8]): 88 µg/mL and 200 µM
- cytotoxicity (Vero-E6 cells; 20 μM and 40 μM): no significant cytotoxicity
- cytotoxicity (Vero-E6 cells; Vero-E6 cells, 2.0 μM, 5.0 μM and 10.0 μM): negligible cytotoxicity
